Laboratory results: US20090215758A1, “Use of 2,5-Disubstituted Thiazol-4-One Derivatives in Drugs” (Gruenenthal GmbH, priority 2005, published 2009)

How the values were obtained:
[1] = molecular target: T1, vanilloid receptor 1 (VR1/TRPV1) of the rat species (Rattus norvegicus, UniProt O35433); test: Functional study on vanilloid receptor 1, FLIPR Ca2+ assay in rat dorsal root ganglia cells; type: cell-based; details: for inhibition at 10 µM / activation at 10 µM / VR1 (rat) (% inhibition compared to 10 μM CP) / VR1 (rat) (% stimulation compared to 10 μM CP): test compound 10 μM; for inhibition at 10 µM / VR1 (rat) (% inhibition compared to 10 μM CP): 5 min incubation, then 100 nM capsaicin, relative to maximum inhibition with 10 μM capsaicin; for inhibition at 10 µM: read-out: VR1 (rat) (% inhibition compared to 10 μM CP); for activation at 10 µM / VR1 (rat) (% stimulation compared to 10 μM CP): Ca2+ signal relative to 10 μM capsaicin (CP); for activation at 10 µM: read-out: VR1 (rat) (% stimulation compared to 10 μM CP); for EC50: unit inferred
T1 construct: The spinal column is removed from beheaded rats; from tissue; host or cells: primary cells from rat dorsal root ganglia (DRGs)
T1 sequence (O35433 whole entry): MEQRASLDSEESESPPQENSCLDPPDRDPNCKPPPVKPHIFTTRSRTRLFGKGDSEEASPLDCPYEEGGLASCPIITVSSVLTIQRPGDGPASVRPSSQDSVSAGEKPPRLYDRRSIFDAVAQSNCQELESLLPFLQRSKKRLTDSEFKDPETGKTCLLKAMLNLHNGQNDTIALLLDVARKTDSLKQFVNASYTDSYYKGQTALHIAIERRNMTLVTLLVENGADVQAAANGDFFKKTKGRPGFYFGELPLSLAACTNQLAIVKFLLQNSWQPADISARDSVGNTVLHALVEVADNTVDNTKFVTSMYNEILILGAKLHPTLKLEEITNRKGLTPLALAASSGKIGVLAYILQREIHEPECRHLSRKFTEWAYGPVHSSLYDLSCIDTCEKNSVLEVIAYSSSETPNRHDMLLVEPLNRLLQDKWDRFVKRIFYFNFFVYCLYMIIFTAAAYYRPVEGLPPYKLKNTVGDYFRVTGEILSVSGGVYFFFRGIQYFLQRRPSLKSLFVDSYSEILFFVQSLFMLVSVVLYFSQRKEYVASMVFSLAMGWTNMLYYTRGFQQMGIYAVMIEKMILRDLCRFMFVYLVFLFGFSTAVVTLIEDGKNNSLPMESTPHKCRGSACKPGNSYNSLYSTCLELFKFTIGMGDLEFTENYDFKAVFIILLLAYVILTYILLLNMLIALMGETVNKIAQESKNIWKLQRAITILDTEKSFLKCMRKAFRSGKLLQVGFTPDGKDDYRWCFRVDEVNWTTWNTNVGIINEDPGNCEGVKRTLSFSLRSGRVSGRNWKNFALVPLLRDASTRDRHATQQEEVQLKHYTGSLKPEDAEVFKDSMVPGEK
Protocol: The agonistic or antagonistic action of the substances to be studied on the vanilloid receptor 1 (VR1/TRPV1) of the rat species can be determined with the following assay. In this assay, the Ca^2+ current through the receptor channel is quantified with the aid of a Ca^2+-sensitive dye (Fluo-4 type, Molecular Probes Europe BV, Leiden the Netherlands) in a fluorescent imaging plate reader (FLIPR, Molecular Devices, Sunnyvale, USA).
Complete medium: 50 ml HAMS F12 Nutrient Mixture (Gibco Invitrogen GmbH, Karlsruhe, Germany) with 10% by volume of FCS (fetal calf serum, Gibco Invitrogen GmbH, Karlsruhe, Germany, heat-inactivated);
2 mM L-glutamine (Sigma, Munich, Germany);
1% by weight of AA solution (antibiotic/antimycotic solution, PAA, Pasching, Austria) and 25 ng/ml of NGF medium (2.5 S, Gibco Invitrogen GmbH, Karlsruhe, Germany)
Cell culture plate: poly-D-lysine-coated, black 96-hole plates with a clear bottom (96 well black/clear plate, BD Biosciences, Heidelberg, Germany) are additionally coated with laminin (Gibco Invitrogen GmbH, Karlsruhe, Germany) by diluting laminin to a concentration of 100 μg/ml with PBS (Ca—Mg-free PBS, Gibco Invitrogen GmbH, Karlsruhe, Germany). Aliquots having a concentration of 100 μg/ml of laminin are withdrawn and stored at −20° C. The aliquots are diluted with PBS in a ratio of 1:10 to 10 μg/ml of laminin and in each case 50 μl of the solution are pipetted into a well of the cell culture plate. The cell culture plates are incubated at 37° C. for at least two hours, the supernatant solution is removed by suction and the wells are each washed twice with PBS. The coated cell culture plates are stored with supernatant PBS which is not removed until directly before the application of the cells.
The spinal column is removed from beheaded rats and placed directly into cold HBSS buffer (Hank's buffered saline solution, Gibco Invitrogen GmbH, Karlsruhe, Germany), i.e. placed in an ice bath, which has been admixed with 1% by volume of an AA solution (antibiotic/antimycotic solution, PAA, Pasching, Austria). The spinal column is severed longitudinally and removed from the spinal canal together with fasciae. Subsequently, the dorsal root ganglia (DRGs) are removed and in turn stored in cold HBSS buffer admixed with 1% by volume of an AA solution. The DRGs freed completely of blood residues and spinal nerves are in each case transferred to 500 μl of cold type 2 collagenase (PAA, Pasching, Austria) and incubated at 37° C. for 35 minutes. […] After complete incubation, the enzyme solution is cautiously pipetted off and the remaining DRGs are each suspended with 500 μl of complete medium.
The DRGs are each suspended repeatedly, drawn through cannulas No. 1, No. 12 and No. 16 by means of a syringe and transferred to 50 ml Falcon tubes which are made up to 15 ml with complete medium. The contents of each Falcon tube are in each case filtered through a 70 μm Falcon filter insert and centrifuged at 1200 revolutions and room temperature for 10 minutes. The resulting pellet is in each case taken up in 250 μl of complete medium and the cell count is determined.
The number of cells in the suspension is adjusted to 3 times 10^5 per ml and in each case 150 μl of this suspension are added to one well of the cell culture plates coated as described above.
Subsequently, the cells are laden with 2 μM Fluo-4 and 0.01% by volume of Pluronic F127 (Molecular Probes Europe BV, Leiden, the Netherlands) in HBSS buffer (Hank's buffered saline solution, Gibco Invitrogen GmbH, Karlsruhe, Germany) at 37° C. for 30 min, washed 3× with HBSS buffer and, after a further incubation of 15 minutes, used in the FLIPR assay at room temperature for Ca^2+ measurement. The Ca^2+-dependent fluorescence is measured before and after addition of substances (λex=488 nm, λem=540 nm). The quantification is effected by the measurement of the highest fluorescence intensity (FC, fluorescence counts) over the time.

VR1 (human) = molecular target: T2, VR1 (human) (Homo sapiens, UniProt Q8NER1); test: Functional study on vanilloid receptor (VR1), FLIPR Ca2+ assay in CHO K1 cells stably transfected with the VR1 gene; type: cell-based; details: for inhibition at 10 µM / activation at 10 µM: CHO-K1, test compound 10 μM; for inhibition at 10 µM / VR1 (human) (% inhibition compared to 10 μM CP): 5 min incubation, then 100 nM capsaicin, compared to 10 μM CP; for activation at 10 µM / VR1 (human) (% stimulation compared to 10 μM CP): Ca2+ signal relative to 10 μM capsaicin (CP); for activation at 10 µM: read-out: VR1 (human) (% stimulation compared to 10 μM CP); for EC50: unit inferred; for VR1 (human) (% inhibition compared to 10 μM CP) / VR1 (human) (% stimulation compared to 10 μM CP): test compound 10 μM
T2 construct: expressed in transfected cells; host or cells: CHO K1 cells (ECACC), stably transfected
T2 sequence (Q8NER1 whole entry): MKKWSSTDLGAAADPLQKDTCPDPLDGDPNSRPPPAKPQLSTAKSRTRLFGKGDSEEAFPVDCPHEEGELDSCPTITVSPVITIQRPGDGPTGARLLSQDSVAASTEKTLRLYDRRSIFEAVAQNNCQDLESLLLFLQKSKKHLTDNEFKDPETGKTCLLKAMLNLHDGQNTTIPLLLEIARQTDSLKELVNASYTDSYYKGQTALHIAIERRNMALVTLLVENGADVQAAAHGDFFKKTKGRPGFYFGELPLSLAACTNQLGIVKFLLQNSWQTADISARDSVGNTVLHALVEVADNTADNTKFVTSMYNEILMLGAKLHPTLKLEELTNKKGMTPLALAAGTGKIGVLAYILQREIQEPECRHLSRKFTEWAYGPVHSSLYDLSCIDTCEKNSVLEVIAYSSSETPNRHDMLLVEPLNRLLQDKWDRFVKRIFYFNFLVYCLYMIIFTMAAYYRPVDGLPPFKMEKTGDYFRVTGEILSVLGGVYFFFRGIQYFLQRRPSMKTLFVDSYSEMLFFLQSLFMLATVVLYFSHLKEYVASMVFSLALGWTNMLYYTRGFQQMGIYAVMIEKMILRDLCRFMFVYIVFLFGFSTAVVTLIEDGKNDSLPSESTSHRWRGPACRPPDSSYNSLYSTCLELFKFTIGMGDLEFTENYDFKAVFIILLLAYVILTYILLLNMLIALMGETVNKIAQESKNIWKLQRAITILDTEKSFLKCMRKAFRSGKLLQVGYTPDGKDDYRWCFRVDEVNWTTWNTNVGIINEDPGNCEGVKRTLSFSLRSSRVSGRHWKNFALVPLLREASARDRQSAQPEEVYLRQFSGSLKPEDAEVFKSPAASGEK
Text: The agonistic or antagonistic action of the substances to be tested on vanilloid receptor (VR1) can also be determined with the assay which follows. In this assay, the Ca^2+ current through the channel is quantified with the aid of a Ca^2+-sensitive dye (Fluo-4 type, Molecular Probes, Europe BV, Leiden, the Netherlands) in a fluorescent imaging plate reader (FLIPR, Molecular Devices, Sunnyvale, USA).
Chinese hamster ovary cells (CHO K1 cells, European Collection of Cell Cultures (ECACC) Great Britain) are transfected stably with the VR1 gene. For functional studies, these cells are plated out onto poly-D-lysine-coated black 96-well plates with a clear bottom (BD Biosciences, Heidelberg, Germany) in a density of 25 000 cells/well. The cells are incubated overnight at 37° C. and 5% CO2 in a culture medium (Ham's Nutrient Mixture F12, 10% by volume of FCS (fetal calf serum), 18 μg/ml of L-proline). The next day, the cells are incubated with Fluo-4 (Fluo-4 2 μM, Pluronic F127 0.01% by volume, Molecular Probes in HBSS (Hank's buffered saline solution), Gibco Invitrogen GmbH, Karlsruhe, Germany) at 37° C. for 30 minutes. Subsequently, the plates are washed 3 times with HBSS buffer and, after a further incubation of 15 minutes at room temperature, used for Ca^2+ measurement in FLIPR. The Ca^2+-dependent fluorescence is measured before and after addition of the substances to be studied (wavelength λex=488 nm, λem=540 nm). The quantification is effected by measuring the highest fluorescence intensity (FC, fluorescence counts) over the time.
The FLIPR protocol consists of 2 substance additions. First, the substances to be tested (10 μM) are pipetted onto the cells and the Ca current is compared with the control (capsaicin 10 μM) (% activation based on the Ca^2+ signal after addition of 10 μM capsaicin). After incubation for 5 minutes, 100 nM capsaicin is applied and the current of Ca^2+ is likewise determined.

## CC1CN(C(=O)c2cccc(C=C3SC(N4CCSCC4)=NC3=O)c2)CCN1c1ncccc1Cl (stereo not shown) [Example 110, 5-{3-[4-(3-chloropyridin-2-yl)-3-methylpiperazine-1-carbonyl]benzylidene}-2-thiomorpholin-4-ylthiazol-4-one]
[1]
  inhibition at 10 µM: 50.3%
  activation at 10 µM: 49.3%
VR1 (human)
  inhibition at 10 µM: 28.8%
  activation at 10 µM: 1.02%

## O=C1N=C(N2CCOCC2)SC1=Cc1ccc(OCc2ccccc2)cc1 [Example 21, 5-(4-benzyloxybenzylidene)-2-morpholin-4-ylthiazol-4-one]
[1]
  inhibition at 10 µM: 50.1%
  activation at 10 µM: 55.8%
  EC50: 6.59 µM
VR1 (human)
  inhibition at 10 µM: 28.5%
  activation at 10 µM: 36.5%
  EC50: 8.51 µM

## O=C1N=C(N2CCSCC2)SC1=Cc1cccc2ccccc12 [Example 41, 5-naphthalen-1-ylmethylene-2-thiomorpholin-4-ylthiazol-4-one]
[1]
  inhibition at 10 µM: 90.9%
  activation at 10 µM: 87%
  EC50: 5.82 µM
VR1 (human)
  inhibition at 10 µM: 22.6%
  activation at 10 µM: 0.47%
  EC50: 10.6 µM

## CC(C)(C)c1ccc(C=C2SC(N3CCOCC3)=NC2=O)cc1 [Example 222, 5-(4-tert-butylbenzylidene)-2-morpholin-4-ylthiazol-4-one]
[1]
  VR1 (rat) (% inhibition compared to 10 μM CP): 98.64%
  VR1 (rat) (% stimulation compared to 10 μM CP): 102.46%
VR1 (human)
  VR1 (human) (% inhibition compared to 10 μM CP): 79.67%
  VR1 (human) (% stimulation compared to 10 μM CP): 41.92%

## CCN(CC)c1ccc(C=C2SC(N3CCOCC3)=NC2=O)cc1 [Example 223, 5-(4-diethylaminobenzylidene)-2-morpholin-4-ylthiazol-4-one]
[1]
  inhibition at 10 µM: 9.3%
  activation at 10 µM: 102%
VR1 (human)
  inhibition at 10 µM: 57.7%
  activation at 10 µM: 70.5%

## CC(=CC=C1SC(N2CCOCC2)=NC1=O)c1ccc(C(C)(C)C)cc1 [Example 34, 5-[3-(4-tert-butylphenyl)but-2-enylidene]-2-morpholin-4-ylthiazol-4-one]
[1]
  inhibition at 10 µM: 88%
  activation at 10 µM: 101%
VR1 (human)
  inhibition at 10 µM: 89.3%
  activation at 10 µM: 111%

## O=C1N=C(N2CCSCC2)SC1=Cc1ccc(OC(F)(F)F)cc1 [Example 24, 2-thiomorpholin-4-yl-5-(4-trifluoromethoxybenzylidene)thiazol-4-one]
[1]
  inhibition at 10 µM: 91.3%
  activation at 10 µM: 110%
  EC50: 11.9 µM
VR1 (human)
  inhibition at 10 µM: 61.6%
  activation at 10 µM: 61.3%
  EC50: > 25 µM

## O=C1N=C(N2CCSCC2)SC1=CC=Cc1ccccc1 [Example 25, 5-(3-phenylallylidene)-2-thiomorpholin-4-ylthiazol-4-one]
[1]
  inhibition at 10 µM: 87.2%
  VR1 (rat) (% stimulation compared to 10 μM CP): 80.77%
VR1 (human)
  inhibition at 10 µM: 37.6%
  activation at 10 µM: 29.1%

## COc1cc(C=C2SC(N3CCN(c4ccccc4)CC3)=NC2=O)ccc1O [Example 68, 5-(4-hydroxy-3-methoxybenzylidene)-2-(4-phenylpiperazin-1-yl)thiazol-4-one]
[1]
  inhibition at 10 µM: 11.6%
  activation at 10 µM: 73.4%
VR1 (human)
  inhibition at 10 µM: 39.3%
  activation at 10 µM: 54.3%

## O=C1N=C(N2CCN(c3ncccc3Cl)CC2)SC1=Cc1ccc2ccccc2c1 [Example 49, 2-[4-(3-chloropyridin-2-yl)piperazin-1-yl]-5-naphthalen-2-ylmethylenethiazol-4-one]
[1]
  inhibition at 10 µM: 78.5%
  activation at 10 µM: 0.4%
VR1 (human)
  inhibition at 10 µM: 34.1%
  activation at 10 µM: 0%

## O=C1N=C(N2CCSCC2)SC1=Cc1cccc(C(=O)N2CCN(c3ncc(C(F)(F)F)cc3Cl)CC2)c1 [Example 113, 5-{3-[4-(3-chloro-5-trifluoromethylpyridin-2-yl)piperazine-1-carbonyl]-benzylidene}-2-thiomorpholin-4-ylthiazol-4-one]
[1]
  inhibition at 10 µM: 97.4%
  activation at 10 µM: 136%
VR1 (human)
  inhibition at 10 µM: 97.8%
  activation at 10 µM: 90.3%

## O=C1N=C(N2CCOCC2)SC1=Cc1ccc(OS(=O)(=O)c2ccccc2)cc1 [Example 234, benzenesulfonic acid 4-(2-morpholin-4-yl-4-oxo-4H-thiazol-5-ylidenemethyl)phenyl ester]
[1]
  inhibition at 10 µM: 98.1%
  activation at 10 µM: 57.9%
VR1 (human)
  inhibition at 10 µM: 27.8%
  activation at 10 µM: 46.1%

## O=C1N=C(N2CCOCC2)SC1=Cc1ccc(OC(F)(F)F)cc1 [Example 36, 2-morpholin-4-yl-5-(4-trifluoromethoxybenzylidene)thiazol-4-one]
[1]
  inhibition at 10 µM: 101%
  activation at 10 µM: 67.7%
VR1 (human)
  inhibition at 10 µM: 68.8%
  activation at 10 µM: 47.4%

## Br.O=C1N=C(N2CCSCC2)SC1=CC=Cc1ccccc1 [Example 190, 5-(3-phenylallylidene)-2-thiomorpholin-4-ylthiazol-4-one hydrobromide]
[1]
  VR1 (rat) (% inhibition compared to 10 μM CP): 83.13%
  VR1 (rat) (% stimulation compared to 10 μM CP): 51.35%
  EC50: 14.3 µM
VR1 (human)
  VR1 (human) (% inhibition compared to 10 μM CP): 32.35%
  VR1 (human) (% stimulation compared to 10 μM CP): 34.09%
  EC50: > 25 µM

## O=C1N=C(N2CCOCC2)SC1=Cc1cccc(Oc2ccccc2)c1 [Example 18, 2-morpholin-4-yl-5-(3-phenoxybenzylidene)thiazol-4-one]
[1]
  inhibition at 10 µM: 88%
  activation at 10 µM: 144%
  EC50: 1.29 µM
VR1 (human)
  inhibition at 10 µM: 79.2%
  activation at 10 µM: 139%
  EC50: 3.65 µM
